Measured values reported in article PMC9414910, “Optimized ^68Ga-Labeled Urea-Based PSMA-Targeted PET Tracers for Prostate Cancer” (Pharmaceuticals, 2022).

Key:
22Rv1 cells (mild PSMA+) = assay: Cell uptake / binding in 22Rv1 cells; assay type: cell-based, human; details: 60 min incubation, 37 °C
Description: Cell lines were kindly provided by the stem cell bank of the Chinese Academy of Sciences. The human prostate cancer epithelial cell lines 22Rv1 (mild PSMA+) and PC-3 (with no PSMA receptor) were used to evaluate the specific cell-binding affinity of the radiotracers, and the results were expressed as percentages of injected activity, IA%/10^6.
Cell Lines and Culture Condition
Cell lines were kindly provided by the stem cell bank, the Chinese Academy of Sciences. The human prostate cancer cell lines 22Rv1 ( mild PSMA positive) and PC3 (PSMA negative) were cultured in RPMI 1640 medium or F12K medium (CORNING, America), supplemented with 10% Fetal Bovine Serum
(GIBCO, The Netherlands) and 1% penicillin-streptomycin (CORNING, America) in a humidified incubator at 37 °C under 5% CO2. Each cell line was passaged when it was at around 80-90% confluence, and harvested using trypsin-ethylenediaminetetraacetic acid (trypsin-EDTA; 0.25% trypsin, 0.02% EDTA, all from KeyGEN BioTECH).
Cells were seeded separately in 24 well plates (1 x 10^5 cells in 1 mL medium/well) and incubated overnight, the medium was changed 2 h before the experiment. For the binding experiments, cells were incubated with novel […]
min, 30 min and 60 min (6 wells/time point). After incubation, the medium was removed and the cells were washed twice with ice-cold phosphate-buffered saline (0.5 mL). Finally, the cells were lysed by NaOH (0.5 M, 0.5 mL). Coincubation of 2-(phosphonomethyl) pentane-1,5-dioic acid […]
(2-PMPA) solution (2 μg/well) and each radiotracer for 60 min was conducted as the blocking experiment. The radioactivity of cells was measured by a γ-counter. The studies were performed in triplicate and the results were reported as the percentage injected activity (IA%/10^6 cells). […]

[1] = Blood pharmacokinetics in male ICR mice; assay type: in vivo; details: 7.4 MBq i.v., two-compartment model
Method: Injection of novel radiotracers or [68Ga]Ga-PSMA-617 or [68Ga]Ga-PSMA-11 […]
mice (5 mice/group), and the blood sample (5 μL) of each mouse was collected by cutting down the tail end at different time points post injection. The radioactivity of blood samples were measured by a γ-counter and the pharmacokinetics data was calculated using the WinNonlin software.
Figure S3. Time-activity curves of the blood samplesafter injection of 7.4 MBq of [68Ga]Ga-PSMA-4PY (A), [68Ga]Ga-PSMA-Q (B),[68Ga]Ga-PSMA-P (C), [68Ga]Ga-PSMA-617 (D), [68Ga]Ga-PSMA-11 (E), [68Ga]Ga-PSMA-Q-1 (F), [68Ga]Ga-PSMA-Q-2 (G) and [68Ga]Ga-PSMA-Q-3 (H).
(1 picture or pasted object on this page, not shown here)

22Rv1 tumor-bearing mice = assay: Biodistribution in 22Rv1 tumor-bearing mice; details: for Uptake Blood, Mean / Uptake Bone, Mean / Uptake Heart, Mean / Uptake Kidney, Mean / Uptake Liver, Mean / Uptake Lung, Mean / Uptake Muscle, Mean / Uptake Spleen, Mean / Uptake Tumor (22Rv1), Mean: 0.74 MBq, n = 3
Method: (§1) The animal studies were approved by the institutional animal care and use committee of the Chinese PLA General Hospital. Healthy male ICR mice were injected with either a novel radiotracer (37 MBq in 150 μL) or saline (150 μL) for the radiotoxicity evaluation. […] Biodistribution and micro-PET studies were performed on 22Rv1 and PC-3 xenograft models, and 2-PMPA was used as the PSMA blocker (all details are shown in the Supplementary Materials).
BALB/c nude mice (male, 4-6 weeks) were inoculated subcutaneously with […]
100 mm3, the mice underwent biodistribution study and Micro-PET imaging.
The 22Rv1 tumor-bearing mice were injected with each novel radiotracer or […]
[…] Mice were sacrificed at different time points p.i. (10 min, 30 min, 60 min), tumors and interested organs were harvested, weighed and measured by a γ-counter, the results were expressed as the percentage of injected dose per gram (ID%/g).
Table S1. Uptake values for ex vivo tissues of [ 68Ga]Ga-PSMA-Q (0.74 MBq/mice) in 22Rv1 tumor-bearing mice (10, 30 and 60 min p.i., n = 3/time point).

22Rv1 tumors = assay: Micro-PET imaging in 22Rv1 tumor-bearing mice; assay type: in vivo; details: 22Rv1 tumor, 60 min p.i., 7.4 MBq
Method: as §1
Table S9. Tumor-to-mu scle (T/M) ratio and tumor- to-kidney (T/K) rati o of radiotracers at 60 min p.i.
The Mice bearing 22Rv1 and PC-3 (n = 3/group) xenograft tumors were […]
Co-injection with 2-PMPA (50 μ g) and each novel tracer (7.4 MBq in 150 μL) was used for blocking. Then the mice were anesthetized with 3% (v/v) isoflurane and underwent Micro-PET scans with continuous 1% (v/v) isoflurane. The images were acquired at 60 min p.i.. In comparison, […]
into another group of mice (n = 3), and Micro-PET schedule was performed as […]
Imaging was performed on a Super Nova PET/CT scanner using a 100-mm-transaxial field of view for PET and 110-mm for CT.
Three-dimensional ordered-subsets expectation maximization reconstruction

[2] = biodistribution, 22Rv1 tumor-bearing mice, 60 min p.i.

Row | SMILES | Uptake in 22Rv1 cells (22Rv1 cells (mild PSMA+)) [IA%/10^6] | Elimination half-life [1] [min] | Uptake Blood, Mean (22Rv1 tumor-bearing mice; 10 min p.i.) [ID%/g] | Uptake Bone, Mean (22Rv1 tumor-bearing mice; 10 min p.i.) [ID%/g] | Uptake Heart, Mean (22Rv1 tumor-bearing mice; 10 min p.i.) [ID%/g] | Uptake Kidney, Mean (22Rv1 tumor-bearing mice; 10 min p.i.) [ID%/g] | Uptake Liver, Mean (22Rv1 tumor-bearing mice; 10 min p.i.) [ID%/g] | Uptake Lung, Mean (22Rv1 tumor-bearing mice; 10 min p.i.) [ID%/g] | Uptake Muscle, Mean (22Rv1 tumor-bearing mice; 10 min p.i.) [ID%/g] | Uptake Spleen, Mean (22Rv1 tumor-bearing mice; 10 min p.i.) [ID%/g] | Uptake Tumor (22Rv1), Mean (22Rv1 tumor-bearing mice; 10 min p.i.) [ID%/g] | Uptake Blood, Mean (22Rv1 tumor-bearing mice; 30 min p.i.) [ID%/g] | Uptake Bone, Mean (22Rv1 tumor-bearing mice; 30 min p.i.) [ID%/g] | Uptake Kidney, Mean (22Rv1 tumor-bearing mice; 30 min p.i.) [ID%/g] | Uptake Liver, Mean (22Rv1 tumor-bearing mice; 30 min p.i.) [ID%/g] | Uptake Lung, Mean (22Rv1 tumor-bearing mice; 30 min p.i.) [ID%/g] | Uptake Muscle, Mean (22Rv1 tumor-bearing mice; 30 min p.i.) [ID%/g] | Uptake Spleen, Mean (22Rv1 tumor-bearing mice; 30 min p.i.) [ID%/g] | Uptake Tumor (22Rv1), Mean (22Rv1 tumor-bearing mice; 30 min p.i.) [ID%/g] | Uptake Blood, Mean (22Rv1 tumor-bearing mice; 60 min p.i.) [ID%/g] | also measured
1 | O=C([O-])CN(CCN(CC(=O)[O-])Cc1cc(CCC(=O)NCCCCCC(=O)NCCCC[C@H](NC(=O)N[C@@H](CCC(=O)O)C(=O)O)C(=O)O)ccc1[O-])Cc1cc(CCC(=O)O)ccc1[O-].[68Ga+3].[OH3+] [[^68Ga]Ga-PSMA-11, reference compound] | 3.19 ± 0.27 | 16.69 ± 1.77 | 2.28 | 0.72 | 2.54 | 10.20 | 1.53 | 0.77 | 0.81 | 0.99 | 1.61 | 0.91 | 0.30 | 2.76 | 0.78 | 0.53 | 0.30 | 0.53 | 1.90 | 0.22 | Uptake Bone, Mean (22Rv1 tumor-bearing mice; 60 min p.i.): 0.17 ID%/g; Uptake Heart, Mean (22Rv1 tumor-bearing mice; 60 min p.i.): 0.53 ID%/g; Uptake Kidney, Mean (22Rv1 tumor-bearing mice; 60 min p.i.): 1.61 ID%/g; Uptake Liver, Mean (22Rv1 tumor-bearing mice; 60 min p.i.): 0.47 ID%/g; Uptake Lung, Mean (22Rv1 tumor-bearing mice; 60 min p.i.): 0.21 ID%/g; Uptake Muscle, Mean (22Rv1 tumor-bearing mice; 60 min p.i.): 0.14 ID%/g; Uptake Spleen, Mean (22Rv1 tumor-bearing mice; 60 min p.i.): 0.40 ID%/g; Uptake Tumor (22Rv1), Mean (22Rv1 tumor-bearing mice; 60 min p.i.): 2.38 ID%/g; SUVmax of tumor (22Rv1 tumors): 0.76 ± 0.18
2 | O=C([O-])CN1CCN(CC(=O)[O-])CCN(CC(=O)NCCCCCC(=O)NC(Cc2cnc3ccccc3c2)C(=O)NCCCCC(NC(=O)NC(CCC(=O)O)C(=O)O)C(=O)O)CCN(CC(=O)O)CC1.[68Ga+3] (stereo not drawn) [[^68Ga]Ga-PSMA-Q-2] | 2.99 ± 0.15 | 20.22 ± 0.97 | 1.87 | 1.12 | 1.76 | 13.88 | 1.62 | 0.83 | 0.65 | 2.34 | 1.34 | 0.69 | 0.71 | 20.74 | 1.21 | 0.61 | 0.37 | 1.41 | 1.87 | 0.47 | Uptake Heart, Mean (22Rv1 tumor-bearing mice; 30 min p.i.): 1.08 ID%/g; Uptake Bone, Mean (22Rv1 tumor-bearing mice; 60 min p.i.): 0.53 ID%/g; Uptake Heart, Mean (22Rv1 tumor-bearing mice; 60 min p.i.): 0.50 ID%/g; Uptake Kidney, Mean (22Rv1 tumor-bearing mice; 60 min p.i.): 26.62 ID%/g; Uptake Liver, Mean (22Rv1 tumor-bearing mice; 60 min p.i.): 0.52 ID%/g; Uptake Lung, Mean (22Rv1 tumor-bearing mice; 60 min p.i.): 0.55 ID%/g; Uptake Muscle, Mean (22Rv1 tumor-bearing mice; 60 min p.i.): 0.16 ID%/g; Uptake Spleen, Mean (22Rv1 tumor-bearing mice; 60 min p.i.): 1.05 ID%/g; Uptake Tumor (22Rv1), Mean (22Rv1 tumor-bearing mice; 60 min p.i.): 2.15 ± 0.33 ID%/g; Uptake Tumor (22Rv1), Mean (22Rv1 tumor-bearing mice; 60 min p.i., listed as [68Ga]Ga-PSMA-Q-2): 2.15 ID%/g; Tumor-to-kidney (T/K) ratio (22Rv1 tumor-bearing mice; [2]): 0.08 ± 0.02; Tumor-to-muscle (T/M) ratio (22Rv1 tumor-bearing mice; [2]): 13.41 ± 0.39; Clearance profile in the kidneys (22Rv1 tumor-bearing mice; within 60 min p.i.): continuously accumulated in the kidneys; SUVmax of tumor (22Rv1 tumors): 0.47 ± 0.11
